# Measurements as given in US12403132B2, “Methods of treating bone marrow failure syndromes and compositions for use in the same” (The Board of Trustees of the Leland Stanford Junior …, priority 2020, dated 2025).
# System: CD235+ erythroblasts
# Assay: CD235+ erythroid expansion of differentiating human cord blood CD34+ progenitors (shRPS19/shRPL11 DBA models), flow cytometry
# Format: cell-based
# Conditions: for CD235+ erythroid expansion in RPS19-insufficiency, % of control: 6.6% of controls (shLuc) untreated; for increase of erythroid expansion in RPS19-insufficiency: concentrations published to block TGFβ signaling, 15 days; for fold increase of erythroid expansion in response to SD208: 5 μM
# Procedure: FIG. 7. […] (a) Differentiating cord blood CD34+ progenitors were transduced with shRNA against luciferase or RPS19 and treated with inhibitors at working concentrations for TGFβ inhibition every three days. Cells were counted and CD235+ erythroid cells were assessed by flow cytometry after 15 days. (b) Prior to flow cytometry, 5000 cells per group were taken from differentiating cultures for NLK kinase assay. (c) CD34+ progenitors were transduced with shRNA against luciferase or RPS19 and non-targeting or siRNA against NLK. After sorting, samples were split into two groups and either treated with vehicle or SD208 every three days. After 15 days cells were counted and subject to flow cytometry to compare the expansion of maturing CD235+ erythroid (left panel) and CD11b+ myeloid cells (right panel). (d) Cord Blood CD34+ progenitors were transduced with shRNA against luciferase (left panel) or RPS19 (right panel) differentiated in erythroid media for 15 days alone, or in the presence of SB525334 or SD208 at 5 μM. Cells were counted and CD235+ erythroid (D—upper) and CD11b+ myeloid cell (D—lower) percentages were determined by flow cytometry. The number of erythroid or myeloid cells is expressed as a percentage of the number of that lineage with no cytokine or drug treatment.
# FIG. 8. […] Human cord blood CD34+ progenitors were transduced with lentivirus co-expressing GFP with shRNA against luciferase (shLuc), RPS19 (shRPS19) or RPL11 (shRPL11). After 36 hours cells GFP+ cells were differentiated in erythroid media in the presence or absence of 5 μM SD208 for 15 days. Cells were counted and assessed for cell surface expression of CD235. (a) The percentage of CD235+ cells was multiplied by the cell count and values were compared as a percentage of untreated controls. (b) Normalizing values relative to untreated RPS19-insufficiency progenitors facilitates direct comparison of erythropoiesis between untreated and SD208-treated cultures. (c) Approximately 3000 cells were removed from differentiating treatments at day 6 and NLK activity was assessed. Values were normalized to reflect a fold induction relative to untreated controls. (d) Lin-Kit+ hematopoietic progenitors were obtained from three mouse embryos expressing tetracycline-inducible shRNA against RPS19 at day E14.5 or three untreated mice, and thee mature RPL11^+/+ or three mature RPL11^+/lox mice treated with tamoxifen for eight weeks. Cells were grown in the presence or absence of doxycycline and/or SD208 for eight days prior to counting and assessing for ter119 surface expression. Values were expressed as a percentage relative to untreated controls (e) and directly comparing the effect of SD208 on erythropoiesis in ribosomal-insufficiency by expressing values relative to untreated ribosome-insufficient cultures (f). At day 5 approximately 3000 cells were assayed for NLK kinase assay (g). CD34+ HSPCs were isolated from three healthy control and three DBA patient mononuclear bone marrow aspirates by magnetic bead sorting and differentiated in the presence or absence of SD208 for 14 days. After counting the total cell population, the ratio of CD235+ erythroblasts was determined by flow cytometry and number of CD235+ erythroblasts calculated. This was expressed as a percentage of the average number of erythroid cells present in untreated healthy controls. (h) The direct effect of SD208 on erythroid expansion in DBA patient samples was calculated following normalization of untreated DBA patient samples as 1-fold, (i) At day five, 3000 cells from each of the differentiating cultures was analyzed for NLK activity by kinase assay and are expressed as a fold induction relative to untreated healthy controls.
SMILES,"CD235+ erythroid expansion in RPS19-insufficiency, % of control [%]",increase of erythroid expansion in RPS19-insufficiency [fold],fold increase of erythroid expansion in response to SD208 (RPL11-insufficiency) [fold],"erythroid expansion, % of untreated controls (RPL11-insufficiency, SD208 5 μM, 5.8% untreated) [%]",fold increase of erythroid expansion in response to SD208 (RPS19-insufficiency) [fold],"erythroid expansion, % of untreated controls (RPS19-insufficiency, SD208 5 μM, 8.7% untreated) [%]","RPS19-insufficient erythroid expansion, fold of non-TGFβ-treated cells (TGFβ-treated, SD208 5 μM) [fold]"
Cc1cccc(-c2nn3c(c2-c2ccnc4ccc(C(N)=O)cc24)CCC3)n1 [Galunisertib],21,3.2,–,–,–,–,–
NC(=O)c1ccc(-c2nc(-c3ccc4c(c3)OCO4)c(-c3ccccn3)[nH]2)cc1 [SB431542],21,3.2,–,–,–,–,–
Fc1ccc(Cl)cc1-c1nc(Nc2ccncc2)c2nccnc2n1 [SD208],41.5,6.3,6.9,36.7,4.7,38.7,4.1
